What was measured:
[1] = Dose normalized Cmax in CD-1 mouse at 60 mg/kg, po administered as repeated dose measured at day 1 by LC-MS/MS analysis; format: ADME, organism-based; conditions: in vivo, 24 h, time 1 day
[2] = Dose normalized AUC (0 to 8 hrs) in CD-1 mouse at 60 mg/kg, po administered as repeated dose measured at day 1 by LC-MS/MS analysis; format: ADME, organism-based; conditions: in vivo, 24 h, time 1 day
[3] = Cmax in CD-1 mouse at 60 mg/kg, po administered as repeated dose measured at day 1 by LC-MS/MS analysis; format: ADME, organism-based; parameters: route oral, time 1 day, dose 60 mg/kg; conditions: in vivo
[4] = AUC(0 to 8 hrs) in CD-1 mouse at 3 mg/kg, po administered as single dose measured over 24 hrs by LC-MS/MS analysis; format: ADME, organism-based; parameters: route oral, time 24 hrs, dose 3 mg/kg; conditions: in vivo
[5] = Dose normalized AUC (0 to 8 hrs) in CD-1 mouse at 3 mg/kg, po administered as single dose measured over 24 hrs by LC-MS/MS analysis; format: ADME, organism-based; conditions: in vivo
[6] = Dose normalized AUC (0 to 8 hrs) in CD-1 mouse at 60 mg/kg, po administered as repeated dose measured at day 4 by LC-MS/MS analysis; format: ADME, organism-based; conditions: in vivo, 96 h, time 4 day
[7] = AUC(0 to 8 hrs) in CD-1 mouse at 60 mg/kg, po administered as repeated dose measured at day 1 by LC-MS/MS analysis; format: ADME, organism-based; parameters: route oral, dose 60 mg/kg, time 1 day; conditions: in vivo
[8] = Elimination half-life in CD-1 mouse at 60 mg/kg, po administered as repeated dose measured at day 4 by LC-MS/MS analysis; format: ADME, organism-based; conditions: in vivo, time 4 day, read-out: beta t1/2 (converted)
[9] = Observed clearance in CD-1 mouse at 3 mg/kg, po administered as single dose measured over 24 hrs by LC-MS/MS analysis; format: ADME, organism-based; conditions: in vivo
[10] = Dose normalized Cmax in CD-1 mouse at 60 mg/kg, po administered as repeated dose measured at day 4 by LC-MS/MS analysis; format: ADME, organism-based; conditions: in vivo, 96 h, time 4 day
[11] = Drug uptake in po dosed CD-1 mouse xenografted with human HL-60 cells administered twice daily for 4 weeks and measured 1 to 8 hrs after post last dose; format: ADME, organism-based; conditions: in vivo, 672 h
[12] = Apparent permeability of compound in human Caco2 cells at 10 uM incubated for 120 mins by LC-MS/MS analysis; format: ADME, cell-based; conditions: Caco-2
[13] = AUC(0 to 8 hrs) in CD-1 mouse at 60 mg/kg, po administered as repeated dose measured at day 4 by LC-MS/MS analysis; format: ADME, organism-based; parameters: route oral, time 4 day, dose 60 mg/kg; conditions: in vivo
[14] = Cmax in CD-1 mouse at 60 mg/kg, po administered as repeated dose measured at day 4 by LC-MS/MS analysis; format: ADME, organism-based; parameters: route oral, dose 60 mg/kg, time 4 day; conditions: in vivo
[15] = Dose normalized Cmax in CD-1 mouse at 3 mg/kg, po administered as single dose measured over 24 hrs by LC-MS/MS analysis; format: ADME, organism-based; conditions: in vivo
[16] = Stability in mouse liver S9 fraction assessed as extraction ratio at 3 uM measured upto 45 mins in presence of NADPH and UDPGA by LC-MS/MS analysis; format: ADME, subcellular
[17] = Stability in mouse liver S9 fraction assessed as half life at 3 uM measured upto 45 mins in presence of NADPH and UDPGA by LC-MS/MS analysis; format: ADME, subcellular

A Cmax/dose [1] of 37 ng/mL, an AUC/dose [2] of 164 ng·h/mL per mg/kg and a Cmax [3] of 2210 ng/mL were found for Cc1cc(F)ccc1-c1cc2c(cn1)ncn2-c1ccc(OC(F)F)cc1 in this work. For the same compound, the AUC(0-t) at 24 h [4] was 363 ng·h/mL, the AUC/dose [5] was 121 ng·h/mL per mg/kg and the AUC/dose [6] was 154 ng·h/mL per mg/kg. It also gave an AUC(0-t) at 24 h [7] of 9860 ng·h/mL, a half-life [8] of 8.1 h and a CL/F [9] of 129 mL/min/kg. For the same compound, the Cmax/dose [10] was 45 ng/mL, the Drug uptake [11] was “Dose-Dependent Effect” and the Papp at 2 h, 10 µM [12] was 14 ×10⁻⁶ cm/s. It also gave an AUC at 96 h [13] of 9220 ng·h/mL, a Cmax [14] of 2680 ng/mL and a Cmax/dose [15] of 43 ng/mL.

An ERH [16] of 0.02 was found for Cc1cc(C#N)ccc1-c1cc2c(cn1)ncn2-c1ccc(OC(F)F)cc1 in this work.

An ERH [16] of 0.09 was found for Cc1cc(F)ccc1-c1cc2c(cn1)ncn2-c1ccc(OC(F)F)nc1 in this work.

A half-life at […], 3 µM [17] of 0.7 h was found for COc1ccc(Cn2cnc3cnc(Nc4cccc(NC(C)=O)c4)cc32)cc1OC in this work.
